Test results as given in the METLIN SMRT retention time set (Domingo-Almenara et al. 2019).

Assay: gradient 5% acetonitrile 3 min, to 50% in 2 min, to 85% in 15 min, held 3 min, 100 µL/min
Conditions: column: Zorbax Extend-C18 2.1 x 50 mm; eluents: water / acetonitrile, 0.1% formic acid
Method in brief: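 Mixtures of ~100 pure standards were chromatographed on a Zorbax Extend-C18 column (2.1 × 50 mm, 1.8 μm) at 100 μL/min using water and acetonitrile, each with 0.1% formic acid. Detection used a quadrupole time-of-flight mass spectrometer in positive and negative ionization mode, and data collection spanned 3 months. Retention time was obtained from adduct peaks picked computationally and each checked manually.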

SMILES	RP-LC retention time [s]
COc1ccc2c(c1)C=C(C(=O)Nc1cc(OC)c(OC)c(OC)c1)CO2	909
CCOCCCNC(=O)C(C)n1c(=O)c(C(F)(F)F)nc2cc(C)c(C)cc21 (stereo not drawn)	1080
Cc1ccsc1CN1CCC(Cn2c(C)cnc2C)CC1	521
C=CCn1c(=O)c2ccccc2n(Cc2nc(-c3ccc(CC)cc3)no2)c1=O	1160
O=C(NCC(O)c1cccc2ccccc12)c1c(F)cccc1Cl (stereo not drawn)	796
CCOc1ccc(NC(=O)Cc2c(C)nn(-c3nc(-c4ccc(Cl)cc4)cs3)c2C)cc1	1260
Cc1ccc(C)c(Nc2c(-c3cc(Br)ccc3O)nc3ncccn23)c1	1100
Cc1c(C(=O)NCCCn2ncccc2=O)nnn1-c1nccs1	630
CC(C)(C)OC(=O)N1CCN(CCNC(=O)CSc2nc3ccccc3o2)CC1	595
CCOc1cccc(-c2noc(Cc3nnc(-c4ccc(F)cc4)o3)n2)c1	1080
Cc1cc(C)n(Cc2nc(-c3ccc(NC(=O)CC(C)(C)C)cc3)oc2C)n1	939
Cc1ccc(C)c(CNS(=O)(=O)c2c(C)sc(C)c2-c2n[nH]c(C)c2C)c1	1150
Cc1cc(=O)n(CC(=O)Nc2cc(C)on2)c(N2CCOCC2)n1	592
CN1CCN(C(=O)C2CCN(S(=O)(=O)c3cc(-c4noc(C5CC5)n4)cs3)CC2)CC1	643
O=C(NCC(c1cccnc1)N1CCc2ccccc21)C(=O)Nc1ccc2c(c1)OCO2 (stereo not drawn)	734
COCCCNc1c(-c2ccc(F)cc2)nc2sc(C(=O)N3CCOCC3)c(C)n12	741
O=C(NC1CCCCC1)c1cccc(Nc2c(-c3ccccc3)nc3cnccn23)c1	838
Cc1cc(C)n(CCNC(=O)c2ccc3nsnc3c2)n1	638
C=CCNC(=O)c1ccc(-n2nc(C)cc2C)nc1	739
N#Cc1cccc(NC(=O)Cc2csc3nc(-c4ccccc4)cn23)c1	782
NC(=O)c1cc(N2CC2)c([N+](=O)[O-])cc1[N+](=O)[O-]	650
CCOC(=O)c1noc2nc(C)nc(Nc3ccc(F)cc3)c12	962
Cc1ccc(-c2nc3cnccn3c2Nc2ccc(Br)cc2)cc1	1030

SMILES	RP-LC retention time [s]
COCCN(CC1(C)CCOCC1)C(=O)NCc1cccc(F)c1	768
CSc1nnc(-c2nn(C)c3c2CN(C(=O)Cc2ccc(C)cc2)CC3)n1C	736
Cc1ccc(-c2cc(C(F)(F)F)n3nc(C(=O)O)cc3n2)cc1	943
Cc1ccc(-c2cnc(N3CCCC(C(=O)NCCC4=CCCCC4)C3)nc2)cc1 (stereo not drawn)	1290
CCn1cc(CN2CC(Oc3ccc(-c4noc(-c5cccnc5)n4)cc3)C2)cn1	635
COc1ccc(-c2nc3ncccn3c2NCc2ccc(Cl)cc2)cc1OC	717
CN(C)c1cc(N2CCCC(NC(=O)c3ccnn3C)C2)ncn1 (stereo not drawn)	578
Cc1cccc(Nc2c(-c3ccccc3)nc3cnccn23)c1C	981
Cc1sc2ncn(CC(=O)NCCCC(=O)N3CCCC(C)C3)c(=O)c2c1C (stereo not drawn)	721
COc1ccc(CN2C=C(C(=O)OCc3nc(C4CC4)no3)C(C)=NS2(=O)=O)cc1	972
CCN(CC)CCNS(=O)(=O)c1cc(-c2cc(C)[nH]n2)sc1C	589
COc1cc(-c2noc(Cc3nnc(-c4ccc(C)c(C)c4)o3)n2)cc(OC)c1OC	1010
Cn1cc(-c2nc(C(=O)Nc3ccc(C#N)cc3)cs2)c2cccnc21	958
CN1C(=O)C(C)(C(=O)NC2CCCCC2)Oc2cccnc21 (stereo not drawn)	784
COC(=O)C1C(=O)C2=C(CC1C)NC(C)=C(C(=O)OC(C)C)C2c1cccc(F)c1 (stereo not drawn)	951
CCOC(=O)c1noc2nc(C)nc(N3CCc4ccccc4C3)c12	1120
CC1CCN(c2ccc(-c3noc(CCC(=O)N4CCN(C5CCCCC5)CC4)n3)cc2)CC1	733
COc1ccccc1Cc1noc(C2CN(C(=O)c3cc(C4CC4)on3)C2)n1	876
Fc1cccc(N2CC3(CCNCC3)C2c2ccccc2)c1 (stereo not drawn)	721
CCOc1ccccc1-c1noc(Cn2c(=O)n(-c3cccc(F)c3)c(=O)c3sccc32)n1	967
Cc1[nH]c(C(=O)N2CCC(CC(=O)N3CCN(c4ccccc4)CC3)CC2)c(C)c1C(=O)OC(C)C	939
COC(=O)C1=CN(c2ccc(N(C)C)cc2)c2ccc(F)cc2S1(=O)=O	730

Next, values leading:

RP-LC retention time [s]	SMILES
956	COc1ccccc1-c1nc2nccc(-c3ccc(Cl)cc3)n2n1
850	O=C(Nc1ccc2c(c1)N(C(=O)c1ccco1)CCC2)Oc1ccccc1
603	O=C(Nc1ccc(N2CCOCC2)cc1)C1=CCN(Cc2ccc(F)cc2)CC1
858	COc1ccccc1CNC(=O)CN1CCN(Cc2ccc(F)cc2Cl)C1=O
1120	Cc1cccc(NC(=O)N2CCN(c3nc4ccccc4nc3C(F)(F)F)CC2)c1
888	Cc1cc(Cl)ccc1N1C(=O)CN(S(C)(=O)=O)CC1(C)C(=O)NCc1ccc(F)cc1 (stereo not drawn)
943	Cc1ccc(C)c(NC(=O)C2CCN(S(C)(=O)=O)c3ccccc3O2)c1 (stereo not drawn)
868	COc1ccc(-c2nnc(-c3cccc(S(=O)(=O)N4CCOCC4)c3)o2)cc1
638	CCN1C(=O)c2cccc3c(NC(=O)c4ccc(C(=O)OC)cc4)ccc1c23
687	Cc1cc(F)ccc1NS(=O)(=O)c1cc2n(c1)CCCN(C)C2=O
832	COc1ccc(-c2csc3c(=O)n(CC(=O)NC4CCCC4)cnc23)cc1
886	CN(C)S(=O)(=O)c1ccc(-c2nnc(C(=O)NC3CCCCC3)o2)cc1
584	O=C(CCn1c(=O)c2cccn2c2cccnc21)N1CCN(c2ccccn2)CC1
985	COc1ccc(Cl)cc1NC(=O)Cc1csc2nc(-c3ccc(C)c(C)c3)cn12
770	CCN1CCCn2cc(S(=O)(=O)Nc3cccc(Cl)c3)cc2C1=O
748	COc1ccc(N2CCN(c3cc(SCC(=O)NCc4ccco4)ncn3)CC2)cc1
1130	CC(C)(C)C(=O)N1CCCC(c2ccnc(-c3cccc(F)c3)n2)C1 (stereo not drawn)
624	CN(C)CCn1c2c(c(SCC(=O)Nc3ccccc3Cl)nc1=O)CCC2
740	CCC(=O)Nc1ccc(OCc2cc(C(=O)NC3CCCC3)no2)cc1
783	O=C(Cc1ccc(F)cc1)Nc1ccc(-c2cn3c(C(=O)N4CCCC4)csc3n2)cc1
558	CNC(=O)c1cc(NC(=O)C2CCC2)cc2nc(C)ccc12
1330	CC(C)c1ccc(S(=O)(=O)N2CC(=O)N(C3CCCC3)C3(CCCCC3)C2)cc1

RP-LC retention time [s]	SMILES
1200	CCc1ccc(S(=O)(=O)c2cnc(N3CCN(c4ccccc4F)CC3)nc2N)cc1
647	Cc1ccc(CNC(=O)Cn2c(N3CCOCC3)nc(C)cc2=O)cc1
751	Cc1ccc(NS(=O)(=O)c2ccc3c4c(cccc24)C(=O)N3)c(C)c1
794	CCN1CCn2cc(S(=O)(=O)NCc3cc(F)cc(F)c3)cc2C1=O
953	COc1ccc(C2CCCN2C(=O)Cn2nc(C(F)(F)F)cc2C)cc1 (stereo not drawn)
935	CCc1nc(-c2csc(S(=O)(=O)N3CCC(C(=O)NCc4ccc(F)cc4)CC3)c2)no1
896	CCCCS(=O)(=O)c1cc2c(cc1NC(=O)c1ccccc1Br)n(C)c(=O)n2C
865	COc1cccc(NC(=O)Cn2nc3c(Oc4ccccc4Cl)nccn3c2=O)c1
894	Cc1nc(N2CCN(C(=O)COc3ccc(Cl)cc3Cl)CC2)cc(-n2cccn2)n1
570	Cc1ccoc1C(=O)N1CCCn2ccnc2C1c1cnn(C)c1 (stereo not drawn)
570	Cc1cc(C)c(NC(=O)CN2C(=O)NC3(CCC(C)CC3)C2=O)c(C)c1 (stereo not drawn)
753	CCc1ccc(NC(=O)C2CCCN(S(=O)(=O)c3cn(CC)cn3)C2)cc1 (stereo not drawn)
859	Cc1ccc(Cl)cc1N1CCN(C(=O)C2CCN(S(=O)(=O)c3cn(C)cn3)CC2)CC1
1160	COc1ccc(OC)c(NC(=O)N2CCc3cn(CC(C)C)c4cccc(c34)C2)c1
1010	Cc1nc(-c2ccccc2)cc2nn(CC(=O)Nc3ccc(F)c(Cl)c3)c(=O)n12
1010	CCc1nc(-c2csc(S(=O)(=O)N3CCC(C(=O)Nc4cccc(F)c4)CC3)c2)no1
717	CCOc1ccc(NS(=O)(=O)c2cc(-c3[nH]ncc3C(=O)N3CCCC3)oc2C)cc1
953	CC(=O)N1CCC2(CC1)Oc1ccccc1C1CC(c3ccccc3)=NN12 (stereo not drawn)
848	CCS(=O)(=O)N1CC(=O)N(c2cccc(C)c2C)C(C)(C(=O)NCc2ccc(F)cc2)C1 (stereo not drawn)
854	CCOC(=O)COc1cc(-c2ccc(C)cc2)nc2ccc(NC(=O)C3CCCC3)cc12
837	Cc1cc(C(=O)N2CCCCC2)c2c(=O)n(CC(=O)Nc3cc(F)ccc3F)c(=O)n(C)c2n1
